Results published in ChEMBL document CHEMBL4373709 (J Med Chem, 2019).
Activity calls are given as the source filed them. The rule behind the calls is not given here.

Assays:
[1] = target: T1, Neurotensin receptor type 1 (Homo sapiens, UniProt P30989); assay: Allosteric modulation of human GFP-fused PK-tagged Gq-coupled NTR1 expressed in CHOK1 cells assessed as induction of NT (8 to 13) peptide-mediated beta-arrestin recruitment measured after 90 mins by pathhunter assay relative to NT (8 to 13) peptide; assay type: cell-based
T1 sequence (P30989 whole entry, the tested form may be a part): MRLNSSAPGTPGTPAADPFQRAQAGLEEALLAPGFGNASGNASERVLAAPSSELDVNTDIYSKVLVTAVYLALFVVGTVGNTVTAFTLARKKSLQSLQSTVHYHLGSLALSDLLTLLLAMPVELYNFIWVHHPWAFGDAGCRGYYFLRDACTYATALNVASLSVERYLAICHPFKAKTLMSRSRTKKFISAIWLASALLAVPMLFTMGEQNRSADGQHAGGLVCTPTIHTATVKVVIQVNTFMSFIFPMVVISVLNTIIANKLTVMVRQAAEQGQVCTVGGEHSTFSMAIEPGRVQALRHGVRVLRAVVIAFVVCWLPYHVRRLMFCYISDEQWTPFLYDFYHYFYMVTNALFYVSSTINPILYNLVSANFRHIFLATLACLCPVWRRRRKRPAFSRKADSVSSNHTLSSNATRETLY

[2] = target: Neurotensin receptor type 2 (Homo sapiens) (UniProt O95665); assay: Allosteric modulation of NTR2 (unknown origin) assessed as induction of NT (8 to 13) peptide-mediated beta-arrestin recruitment at >80 uM by pathhunter assay
Sequence of Neurotensin receptor type 2 (Homo sapiens) (O95665 whole entry, the tested form may be a part): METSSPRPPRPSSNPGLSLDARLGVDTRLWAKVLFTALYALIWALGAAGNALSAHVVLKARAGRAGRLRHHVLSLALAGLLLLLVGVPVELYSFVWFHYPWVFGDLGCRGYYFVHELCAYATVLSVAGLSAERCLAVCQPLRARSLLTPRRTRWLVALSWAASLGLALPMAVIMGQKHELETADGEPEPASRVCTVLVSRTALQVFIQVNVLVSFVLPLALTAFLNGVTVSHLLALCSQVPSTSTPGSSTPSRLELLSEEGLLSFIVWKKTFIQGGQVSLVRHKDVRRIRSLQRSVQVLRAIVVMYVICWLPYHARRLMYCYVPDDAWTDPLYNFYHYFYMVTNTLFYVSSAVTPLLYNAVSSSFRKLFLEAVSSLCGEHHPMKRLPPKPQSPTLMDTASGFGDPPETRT

[3] = target: T1, Neurotensin receptor type 1; assay: Agonist activity at NTR1 (unknown origin) expressed in CHO cells assessed as effect on calcium flux by Fluo-4 NW calcium dye based fluorescence assay; assay type: functional, cell-based
[4] = target: T1, Neurotensin receptor type 1; assay: Positive allosteric modulation of recombinant human NTR1 expressed in HEK293 cells assessed as increase in [125I]-neurotensin binding measured after 45 mins relative to control; assay type: cell-based
[5] = target: Neurotensin receptor type 1 (Mus musculus) (UniProt O88319); assay: Positive allosteric modulation of NTR1 in ICR mouse brain assessed as increase in [125I]-neurotensin binding measured after 20 mins; assay type: tissue-based
Sequence of Neurotensin receptor type 1 (Mus musculus) (O88319 whole entry): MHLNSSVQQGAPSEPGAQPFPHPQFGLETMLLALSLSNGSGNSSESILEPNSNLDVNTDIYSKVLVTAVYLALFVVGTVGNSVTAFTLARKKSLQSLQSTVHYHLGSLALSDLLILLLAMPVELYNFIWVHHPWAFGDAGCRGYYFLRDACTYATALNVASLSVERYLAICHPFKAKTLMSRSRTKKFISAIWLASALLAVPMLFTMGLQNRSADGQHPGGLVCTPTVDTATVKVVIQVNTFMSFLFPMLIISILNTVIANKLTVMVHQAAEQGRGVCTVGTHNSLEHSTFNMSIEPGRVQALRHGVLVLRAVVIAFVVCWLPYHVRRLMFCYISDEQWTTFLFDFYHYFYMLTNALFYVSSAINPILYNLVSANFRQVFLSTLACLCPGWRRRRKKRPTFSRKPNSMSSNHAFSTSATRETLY

[6] = target: Neurotensin receptor type 2 (Homo sapiens) (UniProt O95665); assay: Positive allosteric modulation of recombinant human NTR2 expressed in HEK293 cells assessed as increase in [125I]-neurotensin binding measured after 3 hrs; assay type: cell-based
[7] = target: T1, Neurotensin receptor type 1; assay: Allosteric modulation of human GFP-fused PK-tagged Gq-coupled NTR1 expressed in CHOK1 cells assessed as induction of NT (8 to 13) peptide-mediated beta-arrestin recruitment at 0.5 to 356 nM measured after 90 mins by pathhunter assay; assay type: cell-based
[8] = target: G-protein coupled receptor 35 (Homo sapiens) (UniProt Q9HC97); assay: Allosteric modulation of human PK-tagged Gi/Go-coupled GPR35 expressed in CHOK1 cells assessed as induction of zaprinast-mediated beta-arrestin recruitment by pathhunter assay; assay type: cell-based
Sequence of G-protein coupled receptor 35 (Homo sapiens) (Q9HC97 whole entry): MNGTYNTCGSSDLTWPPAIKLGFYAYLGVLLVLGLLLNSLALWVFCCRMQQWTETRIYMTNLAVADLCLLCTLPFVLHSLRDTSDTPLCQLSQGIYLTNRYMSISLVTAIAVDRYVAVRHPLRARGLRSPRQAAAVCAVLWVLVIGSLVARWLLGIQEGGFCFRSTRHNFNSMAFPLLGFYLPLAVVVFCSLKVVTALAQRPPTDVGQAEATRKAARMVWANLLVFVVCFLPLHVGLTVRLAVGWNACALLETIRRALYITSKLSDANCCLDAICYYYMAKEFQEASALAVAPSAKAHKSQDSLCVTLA

[9] = target: G-protein coupled receptor 55 (Homo sapiens) (UniProt Q9Y2T6); assay: Allosteric modulation of human PK-tagged Gq-coupled GPR55 expressed in CHOK1 cells assessed as induction of L-alpha-Lysophosphatidylinositol-mediated beta-arrestin recruitment by pathhunter assay; assay type: functional, cell-based
Sequence of G-protein coupled receptor 55 (Homo sapiens) (Q9Y2T6 whole entry): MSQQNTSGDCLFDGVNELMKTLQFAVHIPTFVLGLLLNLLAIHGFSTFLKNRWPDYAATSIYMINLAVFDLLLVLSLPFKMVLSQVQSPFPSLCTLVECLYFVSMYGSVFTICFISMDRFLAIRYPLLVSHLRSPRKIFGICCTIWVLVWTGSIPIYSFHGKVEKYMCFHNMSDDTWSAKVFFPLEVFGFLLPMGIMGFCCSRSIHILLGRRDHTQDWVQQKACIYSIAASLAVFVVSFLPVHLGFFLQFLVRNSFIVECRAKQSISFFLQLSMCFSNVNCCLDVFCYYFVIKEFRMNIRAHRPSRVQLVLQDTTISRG

[10] = target: Kappa-type opioid receptor (Homo sapiens) (UniProt P41145); assay: Allosteric modulation of human PK-tagged Gi/Go-coupled KOR expressed in CHOK1 cells assessed as induction of dynorphin A-mediated beta-arrestin recruitment by pathhunter assay; assay type: cell-based
Sequence of Kappa-type opioid receptor (Homo sapiens) (P41145 whole entry): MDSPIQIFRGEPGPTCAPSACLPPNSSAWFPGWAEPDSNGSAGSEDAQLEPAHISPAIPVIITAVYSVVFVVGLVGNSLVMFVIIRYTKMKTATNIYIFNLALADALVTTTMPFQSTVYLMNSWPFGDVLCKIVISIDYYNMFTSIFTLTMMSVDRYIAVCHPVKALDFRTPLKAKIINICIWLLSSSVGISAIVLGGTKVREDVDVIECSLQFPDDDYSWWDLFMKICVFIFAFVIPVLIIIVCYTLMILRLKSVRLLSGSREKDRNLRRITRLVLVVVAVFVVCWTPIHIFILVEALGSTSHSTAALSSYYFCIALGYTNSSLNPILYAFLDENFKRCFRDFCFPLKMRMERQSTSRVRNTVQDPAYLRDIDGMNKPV

Mus musculus [11] = assay: Suppression of hyperlocomotion in DAT knockout C57BL/6J mouse assessed as reduction in total distance traveled at 12 mg/kg, ip measured up to 2 hrs by open field test; assay type: functional, organism-based
Mus musculus [12] = assay: Suppression of hyperlocomotion in DAT knockout C57BL/6J mouse assessed as reduction in total distance traveled at 10 to 100 mg/kg, po measured up to 2 hrs by open field test; assay type: functional, organism-based
[13] = target: T2, Alpha-2A adrenergic receptor (Homo sapiens) (UniProt P08913); assay: Binding affinity to alpha2A adrenoceptor (unknown origin) at 5 uM relative to control
T2 sequence (whole entry): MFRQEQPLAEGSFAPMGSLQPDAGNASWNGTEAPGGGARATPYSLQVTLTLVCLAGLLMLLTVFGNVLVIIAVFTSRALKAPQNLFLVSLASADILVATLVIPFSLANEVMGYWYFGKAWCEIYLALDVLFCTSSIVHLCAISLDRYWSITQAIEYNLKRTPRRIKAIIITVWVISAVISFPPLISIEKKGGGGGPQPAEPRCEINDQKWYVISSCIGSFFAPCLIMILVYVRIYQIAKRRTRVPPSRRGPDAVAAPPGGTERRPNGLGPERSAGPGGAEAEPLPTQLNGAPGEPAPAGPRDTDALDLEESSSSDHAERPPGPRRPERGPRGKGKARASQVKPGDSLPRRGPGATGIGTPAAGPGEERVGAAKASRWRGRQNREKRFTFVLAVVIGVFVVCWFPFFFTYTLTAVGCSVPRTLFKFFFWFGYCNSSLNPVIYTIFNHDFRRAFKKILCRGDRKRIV

[14] = target: D(1A) dopamine receptor (Homo sapiens) (UniProt P21728); assay: Binding affinity to D1R (unknown origin) at 5 uM relative to control
Sequence of D(1A) dopamine receptor (Homo sapiens) (P21728 whole entry): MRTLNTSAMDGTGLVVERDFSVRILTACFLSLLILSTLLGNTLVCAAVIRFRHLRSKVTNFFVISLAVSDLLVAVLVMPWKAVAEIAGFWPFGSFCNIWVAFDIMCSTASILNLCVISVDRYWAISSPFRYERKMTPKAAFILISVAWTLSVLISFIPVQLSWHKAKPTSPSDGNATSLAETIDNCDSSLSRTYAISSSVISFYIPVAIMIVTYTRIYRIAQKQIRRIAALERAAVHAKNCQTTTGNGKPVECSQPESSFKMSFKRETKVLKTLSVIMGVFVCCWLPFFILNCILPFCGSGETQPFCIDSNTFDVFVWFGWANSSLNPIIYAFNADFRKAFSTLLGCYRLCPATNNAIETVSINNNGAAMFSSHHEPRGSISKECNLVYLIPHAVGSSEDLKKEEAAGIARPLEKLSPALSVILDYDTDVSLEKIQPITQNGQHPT

[15] = target: Histamine H1 receptor (Homo sapiens) (UniProt P35367); assay: Binding affinity to H1R (unknown origin) at 5 uM relative to control
Sequence of Histamine H1 receptor (Homo sapiens) (P35367 whole entry): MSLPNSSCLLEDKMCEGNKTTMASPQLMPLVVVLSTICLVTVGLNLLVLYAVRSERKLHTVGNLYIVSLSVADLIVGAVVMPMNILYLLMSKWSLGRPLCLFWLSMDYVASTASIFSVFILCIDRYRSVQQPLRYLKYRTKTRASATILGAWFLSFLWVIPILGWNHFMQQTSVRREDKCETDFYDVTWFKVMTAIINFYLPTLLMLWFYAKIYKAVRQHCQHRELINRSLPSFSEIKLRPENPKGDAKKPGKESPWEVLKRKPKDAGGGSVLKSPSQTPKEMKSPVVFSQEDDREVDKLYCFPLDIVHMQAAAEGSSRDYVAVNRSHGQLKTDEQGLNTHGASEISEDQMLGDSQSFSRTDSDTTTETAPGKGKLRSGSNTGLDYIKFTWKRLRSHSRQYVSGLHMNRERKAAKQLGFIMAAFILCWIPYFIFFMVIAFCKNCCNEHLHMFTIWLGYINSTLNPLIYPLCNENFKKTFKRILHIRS

[16] = target: 5-hydroxytryptamine receptor 2B (Homo sapiens) (UniProt P41595); assay: Binding affinity to 5HT2B (unknown origin) at 5 uM relative to control
Sequence of 5-hydroxytryptamine receptor 2B (Homo sapiens) (P41595 whole entry, the tested form may be a part): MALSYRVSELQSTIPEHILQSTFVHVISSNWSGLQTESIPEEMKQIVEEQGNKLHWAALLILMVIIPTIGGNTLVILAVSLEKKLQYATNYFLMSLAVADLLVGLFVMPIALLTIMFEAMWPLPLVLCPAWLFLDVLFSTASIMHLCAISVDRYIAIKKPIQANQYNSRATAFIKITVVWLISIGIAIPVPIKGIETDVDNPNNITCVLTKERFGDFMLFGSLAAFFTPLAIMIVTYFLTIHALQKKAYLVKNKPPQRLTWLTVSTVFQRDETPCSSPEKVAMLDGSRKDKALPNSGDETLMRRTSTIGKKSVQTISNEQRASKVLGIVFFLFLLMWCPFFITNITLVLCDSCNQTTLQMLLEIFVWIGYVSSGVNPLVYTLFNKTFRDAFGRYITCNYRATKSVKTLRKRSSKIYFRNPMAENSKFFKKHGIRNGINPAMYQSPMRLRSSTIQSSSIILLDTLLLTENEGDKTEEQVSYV

[17] = target: T1, Neurotensin receptor type 1; assay: Allosteric modulation of human GFP-fused PK-tagged Gq-coupled NTR1 expressed in CHOK1 cells assessed as induction of NT (8 to 13) peptide-mediated beta-arrestin recruitment measured after 90 mins by pathhunter assay; assay type: cell-based

| SMILES | Emax [1] [%] | Activity [2] | EC50 [17] [µM] | also measured |
| --- | --- | --- | --- | --- |
| COc1ccccc1C1CCN(c2nc(C3(F)CC3)nc3ccc(N(C)CCO)cc23)CC1 | 100 | inactive | – | Activity [3]: inactive; Emax [4]: 140%; Activity [5]: Active; Activity [6]: inactive; Activity [7]: inactive; Activity [8]: inactive; Activity [9]: inactive; Activity [10]: inactive; Activity (Mus musculus [11]): Active; Activity (Mus musculus [12]): Active; Activity [13]: 55%; Activity [14]: 36%; Activity [15]: 75%; Activity [16]: 42% |
| COc1ccccc1C1CCN(c2nc(C3CC3)nc3ccc(N4CC[C@H](O)C4)cc23)CC1 | 78 | inactive | 1.01 | – |
| CCCN(C)c1ccc2nc(C3(F)CC3)nc(N3CCC(c4ccccc4OC)CC3)c2c1 | 80 | inactive | 1.45 | – |
| COc1ccccc1N1CCN(c2nc(C3CC3)nc3ccc(N(C)C)cc23)CC1 | – | – | 0.71 | – |
| COc1cc2nc(C3CC3)nc(N3CCC(c4ccccc4OC)CC3)c2cc1OC | 89 | inactive | 1.04 | – |
| COc1ccccc1C1CCN(c2nc(C3CCC3)nc3ccc(N(C)CCO)cc23)CC1 | 80 | inactive | 1.05 | – |
| COc1ccccc1C1CCN(c2nc(C3CC3)nc3ccc(N4CCC(OC)CC4)cc23)CC1 | 79 | inactive | 2.78 | – |
| COc1ccccc1C1CCN(c2nc(C3CC3)nc3c(Cl)cc(N(C)CCO)cc23)CC1 | 95 | inactive | 0.22 | – |
| COc1ccccc1C1CCN(c2nc(C3CC3)nc3ccc(N4CC[C@@H](OC)C4)cc23)CC1 | 93 | inactive | 0.64 | – |
| CCCN(C)c1ccc2nc(C3CC3)nc(N3CCC(c4ccccc4OC)CC3)c2c1 | 68 | inactive | 0.732 | – |
| COc1cc2nc(C3CC3)nc(N3CCN(c4ccccc4OC)CC3)c2cc1OC | – | inactive | 2.87 | Activity [3]: inactive; Activity [8]: inactive; Activity [9]: inactive; Activity [10]: inactive |
| COc1ccccc1C1CCN(c2nc(C3CC3)nc3ccc(N(C)CCO)cc23)CC1 | 92 | inactive | 0.478 | – |
| COc1ccccc1C1CCN(c2nc(C3(C(F)(F)F)CC3)nc3ccc(N(C)CCN4CCOCC4)cc23)CC1 | 78 | inactive | 3.81 | – |
| CCN(C)c1ccc2nc(C3CC3)nc(N3CCC(c4ccccc4OC)CC3)c2c1 | 80 | inactive | 0.56 | – |
| COc1ccccc1C1CCN(c2nc(C3CC3)nc3ccc(N(C)CCO)c(F)c23)CC1 | 95 | inactive | 0.59 | – |
| COc1ccccc1C1CCN(c2nc(C3(C(F)(F)F)CC3)nc3ccc(N(C)CCO)cc23)CC1 | 94 | inactive | 0.34 | – |
| COCCN(C)c1ccc2nc(C3(C)CC3)nc(N3CCC(c4ccccc4OC)CC3)c2c1 | 60 | inactive | 2.23 | – |
| COc1ccccc1C1CCN(c2nc(C3CC3)nc3cc(Cl)c(N(C)CCO)cc23)CC1 | 98 | inactive | 0.6 | – |
| COc1ccccc1C1CCN(c2nc(C3CC3)nc3ccc(N(C)CCO)c(Cl)c23)CC1 | 91 | inactive | 0.5 | – |
| COc1ccccc1C1CCN(c2nc(C3(C)CCC3)nc3ccc(N(C)CCO)cc23)CC1 | 75 | inactive | 1.48 | – |
| CCCN(C)c1cc2c(N3CCC(c4ccccc4OC)CC3)nc(C3CC3)nc2cc1F | 68 | inactive | 3.01 | – |
| COCCN(C)c1ccc2nc(C3CC3)nc(N3CCC(c4ccccc4OC)CC3)c2c1 | 79 | inactive | 1.12 | – |

Further lines, with some results ahead:

| Emax [1] [%] | Activity [2] | EC50 [17] [µM] | SMILES | also measured |
| --- | --- | --- | --- | --- |
| 90 | inactive | – | COc1ccccc1C1CCN(c2nc(C3(C)CC3)nc3ccc(N(C)CCO)cc23)CC1 | – |
| 82 | inactive | 6.72 | COc1ccccc1C1CCN(c2nc(C3CC3)nc3ccc(N4CCC(O)CC4)cc23)CC1 | – |
| 70 | inactive | 4.23 | COc1ccccc1C1CCN(c2nc(-c3ccccc3)nc3ccc(N(C)CCO)cc23)CC1 | – |
| 86 | inactive | 10 | CCCN(C)c1ccc2c(N3CCC(c4ccccc4OC)CC3)nc(C3CC3)nc2c1 | – |
| 82 | inactive | 0.81 | COc1ccccc1C1CCN(c2nc(C3CC3)nc3ccc(N4CC[C@H](OC)C4)cc23)CC1 | – |
| 92 | inactive | 0.81 | COc1ccccc1C1CCN(c2nc(C3CC3)nc3ccc(N(C)CCN4CCOCC4)cc23)CC1 | – |
| 86 | inactive | 0.99 | CCCN(C)c1cc2c(N3CCC(c4ccccc4OC)CC3)nc(C3CC3)nc2cc1C | – |
| 78 | inactive | 3.88 | COc1ccccc1C1CCN(c2nc(C3CCCC3)nc3ccc(N(C)CCO)cc23)CC1 | – |
| 97 | inactive | 1.72 | COc1ccccc1C1CCN(c2nc(C3(F)CC3)nc3ccc(N(C)CCN4CCOCC4)cc23)CC1 | – |
| 96 | inactive | 0.27 | COc1ccccc1C1CCN(c2nc(C3(F)CCC3)nc3ccc(N(C)CCO)cc23)CC1 | – |
| 100 | inactive | 0.16 | COc1ccccc1C1CCN(c2nc(C3CC3)nc3c(F)cc(N(C)CCO)cc23)CC1 | – |
| 88 | inactive | 0.56 | COc1ccccc1C1CCN(c2nc(C3CC3)nc3cc(C)c(N(C)CCO)cc23)CC1 | – |
| 93 | inactive | 1.26 | COc1ccccc1C1CCN(c2nc(C3CC3)nc3ccc(N(C)CCO)c(C)c23)CC1 | – |
| 89 | inactive | 0.888 | COc1ccccc1C1CCN(c2nc(C3CC3)nc3ccc(N(C)C)cc23)CC1 | – |
| 60 | inactive | 6.71 | CCN(C)c1cccc2nc(C3CC3)nc(N3CCC(c4ccccc4OC)CC3)c12 | – |
| 86 | inactive | 1.06 | COCCN(C)c1ccc2nc(C3(F)CC3)nc(N3CCC(c4ccccc4OC)CC3)c2c1 | – |
| 71 | inactive | 3.36 | COc1ccccc1C1CCN(c2nc(C3(C)CC3)nc3ccc(N(C)CCN4CCOCC4)cc23)CC1 | – |
| 79 | inactive | 0.44 | COc1ccccc1C1CCN(c2nc(C3CC3)nc3ccc(N4CC[C@@H](O)C4)cc23)CC1 | – |
| 84 | inactive | 0.92 | COc1ccccc1C1CCN(c2nc(C3(F)CC3)nc3ccc(N(C)C)cc23)CC1 | – |
| 87 | inactive | 0.16 | COc1ccccc1C1CCN(c2nc(C3CC3)nc3c(C)cc(N(C)CCO)cc23)CC1 | – |
| – | inactive | > 20 | COc1cc2nc(C3CC3)nc(C3CCN(c4ccccc4OC)CC3)c2cc1OC | – |
